Measured values taken from patent publication US7407980B2, “Imidazolinylmethyl aralkylsulfonamides” (Roche Palo Alto LLC, priority 2002, dated 2008).

Molecular target: T1, alpha 1A adrenoceptors (Homo sapiens, UniProt P35348)
T1 construct: expressed in transfected cells; host or cells: CHO-K1 (clone 13)
T1 sequence (P35348 1-466): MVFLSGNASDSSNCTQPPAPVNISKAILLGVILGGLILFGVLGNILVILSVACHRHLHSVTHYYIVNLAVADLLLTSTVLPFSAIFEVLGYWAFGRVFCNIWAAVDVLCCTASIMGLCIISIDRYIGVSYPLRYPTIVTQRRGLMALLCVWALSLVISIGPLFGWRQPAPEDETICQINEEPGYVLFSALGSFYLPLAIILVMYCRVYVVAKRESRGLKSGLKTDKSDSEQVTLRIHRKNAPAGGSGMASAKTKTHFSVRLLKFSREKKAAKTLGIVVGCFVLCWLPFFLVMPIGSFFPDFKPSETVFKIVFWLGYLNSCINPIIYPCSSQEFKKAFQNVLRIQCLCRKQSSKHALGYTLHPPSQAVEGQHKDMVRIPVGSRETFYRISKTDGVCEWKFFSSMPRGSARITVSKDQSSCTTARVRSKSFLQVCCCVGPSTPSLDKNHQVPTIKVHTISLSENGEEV
Experiment: Functional assay: fluorescent dye (Fluo-3, FLIPR) determination of intracellular calcium in CHO-K1 cells expressing alpha 1A adrenoceptors (clone 13)
Format: cell-based
Details: for EC50: CHO-K1 cells expressing alpha 1A adrenoceptor (clone 13), agonist, intracellular calcium, FLIPR, read-out: CHO-1A-13 pEC50 (converted); for CHO-1A-13 IA: intrinsic activity: maximum response relative to norepinephrine bitartrate (full agonist), CHO-K1 alpha 1A clone 13
Protocol: The activity of potential α1A/L activity in vitro was determined by evaluating the potency and relative intrinsic activity (relative to norepinephrine or phenylephrine) of standard and novel compounds using fluorescent dye determination of intracellular calcium concentrations.
This example illustrates a functional assay which can be used to determine α1A/L agonist activity of Compounds of Formula I.
The activity of compounds of this invention in vitro was examined using fluorescent dye determination of intracellular calcium concentrations.
Chinese hamster ovary cells CHO-K1 expressing the alpha 1A adrenoceptors (clone 13) are washed 4 times (approx. 300 μL/well) with fluorometric imaging plate reader (FLIPR) buffer (Hank's buffered saline solution (HBSS), 2 mM CaCl2, 10 mM HEPES, 2.5 mM probenecid, 100 μM ascorbic acid), with a final volume of 150 μL/well. Cells are loaded with 50 μL/well of 8 μM Fluo-3 AM (Molecular Probes, Eugene, Oreg.), for a final concentration of 2 μM Fluo-3 AM. Cells are then incubated for 60 min at 37° C. Following dye loading, cells are washed 4 times (approx. 300 μL/well) with FLIPR buffer with a final volume of 150 μL/well.
Test compound, control compound and reference compound are run in quadruplicate, 8-point curves on each plate with a final assay concentration range of 10^−4 M to 10^−11 M for each compound. All compounds are dissolved in DMSO at 10 mM, and serially diluted in FLIPR buffer.
The assay plate is placed in the FLIPR incubation chamber and a baseline fluorescence measurement (excitation @ 488 nm and emission @ 510-570 nm) is obtained (15 sec interval). An experimental run is then commenced. The reaction is started with the addition of 50 μL/well (at 4× final concentration) of test, control, or reference compound solution from the agonist plate to the assay plate to all 96 wells simultaneously. Fluorescence is measured for 120 sec at 1 sec intervals. Then, a second addition of 5 μM ionomycin (50 μL/well from 5× concentration ionomycin plate) is added to the assay plate. Fluorescence is measured for 30 sec at 1 sec intervals. All experiments are conducted at room temperature.
For each assay plate, responses (increase in peak fluorescence) in each well following addition of agonist (test, control and reference) are determined. These responses may be expressed as raw CFU (Corrected Fluorescence Units), as a % maximum ionomycin response or other unit as determined by the investigator.
For test compound, control compound (Norepinephrine (NE) bitartrate), and reference compound, the concentration producing a 50% increase in control response (EC50) is determined using iterative curve-fitting methods. Excel spreadsheet or Kaleidagraph software are used to fit data to the general logistic function (E=B+Emax·A^nH/A^nH+EC50^nH), where B is the corrected baseline fluorescence units (defined as zero), A is the concentration of agonist added and nH is the Hill slope (constrained to unity). EC50 values and maxima (Emax) for each curve can be estimated objectively using this software.
In addition, the intrinsic activity (a) is determined. Intrinsic activity is defined as the maximum response to test agonist divided by the maximum response to a full agonist acting through the same receptor. For these experiments, the full agonist is defined as Norepinephrine (NE) bitartrate (control).
As used herein an agonist is a compound that elicits a maximal response greater of that of norepinephrine with a pEC50>5.5.

| SMILES | EC50 [nM] | CHO-1A-13 IA |
| --- | --- | --- |
| COc1cc(CC2=NCCN2)ccc1NS(C)(=O)=O [Compound 2, N-[4-(4,5-Dihydro-1H-imidazol-2-ylmethyl)-2-methoxy-phenyl]-methanesulfonamide] | 170 | 0.92 |
| CS(=O)(=O)Nc1ccc(CC2=NCCN2)c2ccoc12 [Compound 8, N-[4-(4,5-Dihydro-1H-imidazol-2-ylmethyl)-benzofuran-7-yl]-methanesulfonamide] | 302 | 0.65 |
| CCS(=O)(=O)Nc1ccc(CC2=NCCN2)cc1Cl [Compound 13, Ethanesulfonic acid [2-chloro-4-(4,5-dihydro-1H-imidazol-2-ylmethyl)-phenyl]-amide] | 661 | 0.16 |
| COc1cc(NS(C)(=O)=O)ccc1CC1=NCCN1 [Compound 6, N-[4-(4,5-Dihydro-1H-imidazol-2-ylmethyl)-3-methoxy-phenyl]-methanesulfonamide] | 347 | 0.43 |
| COc1cc(CC2=NCCN2)c(Cl)cc1NS(C)(=O)=O [Compound 25, N-[5-Chloro-4-(4,5-dihydro-1H-imidazol-2-ylmethyl)-2-methoxy-phenyl]-methanesulfonamide] | 75.9 | 0.81 |
| COc1cc(NS(C)(=O)=O)c(OC)cc1CC1=NCCN1 [Compound 22, N-[4-(4,5-Dihydro-1H-imidazol-2-ylmethyl)-2,5-dimethoxy-phenyl]-methanesulfonamide] | 692 | 0.27 |
